Read-outs that look alike come from different tables or passages of the source. Starred links: 1 amine or outer side, 2 acyl side, 3 side chain; linkers in the order of their positions; H or OH if unused. Positions of bridges follow the written chain, without caps; N, C: chain ends. Non-standard residues stand in square brackets, D forms with d. Residues, ends and D or L forms follow the SMILES beside them. *: point of attachment. X35 = CC(=O)N[C@@H](CCC(=O)Nc1cccc(C[C@H](N[*:1])C(=O)[*:2])c1)C(=O)O; X33 = CC(=O)N[C@@H](CC(=O)Nc1cccc(C[C@H](N[*:1])C(=O)[*:2])c1)C(=O)O; X23 = NS(=O)(=O)c1cccc(C(=O)Nc2cccc(C[C@H](N[*:1])C(=O)[*:2])c2)c1; NH(1-deoxy-D-glucityl) = OC[C@@H](O)[C@@H](O)[C@H](O)[C@@H](O)CN*; DOTA = O=C(O)CN1CCN(CC(=O)O)CCN(CC(=O)*)CCN(CC(=O)O)CC1; X22 = CC(C)CC(=O)Nc1cccc(C[C@H](N[*:1])C(=O)[*:2])c1; Phe(4-NH2) = Nc1ccc(C[C@H](N)C(=O)O)cc1; mXylylene = c1cc(C[*:1])cc(C[*:2])c1; Bta = N[C@@H](Cc1csc2ccccc12)C(=O)O; X18 = NS(=O)(=O)c1ccc(C(=O)*)nc1; X2 = O=C(CN1CCC(N[*:1])CC1)[*:2]; X1 = O=C(CN1CCN([*:1])CC1)[*:2]; X27 = NS(=O)(=O)c1ccc(C(=O)*)s1; X31 = NS(=O)(=O)c1coc(C(=O)*)c1; X29 = c1cc2cn[nH]c2cc1CN*; Sar = CNCC(=O)O
Key:
[1] = molecular target: T1, CAIX-expressing human HT-29 colorectal cancer cells (Homo sapiens, UniProt Q16790); assay: FACS binding assay (IC50 determination, competition with tracer 3BP-2776 or 3BP-4149); settings: 4° C., 1 hour, read-out: pIC50 category (activity) (converted)
T1 construct: CAIX-expressing human HT-29 colorectal cancer cells; host or cells: HT-29 human colorectal cancer cells
Procedure, shortened: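 HT-29 cells in FACS buffer (PBS, 1% FCS) at 500.000 cells/ml were exposed to compounds competing with a labelled tracer, with biotinylated compounds detected by 1 μg/mL APC-streptavidin for 30 min on ice. APC/Cy5 median fluorescence was read by flow cytometry and IC50 derived by 4PL fit.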

[2] = molecular target: T2, human carbonic anhydrase IX (hCAIX-Fc) (Homo sapiens, UniProt Q16790); assay: Surface plasmon resonance assay with hCAIX-Fc; assay type: binding; settings: 25° C.; for t1/2 category (activity): SPR dissociation half-life, hCAIX-Fc; for Kd: SPR, hCAIX-Fc captured, read-out: pKD category (activity) (converted)
T2 construct: purchased SinoBliological (Sino Biological) 10107-H02H

[3] = FACS binding assay, HT-29 cells, competition with tracer 3BP-2776 (10 nM, biotin-labeled)
[4] = FACS binding assay, HT-29 cells, competition with tracer 3BP-4149 (3 nM, Cy5-labeled)
[5] = FACS competition on HT-29 cells, Tracer ID 3BP-2776 (10 nM, biotin-labeled)

| SMILES | IC50 [1, 3] [nM] | t1/2 category (activity) [2] | Kd [2] [nM] | IC50 [1, 4] [nM] | IC50 [1, 5] [nM] |
| --- | --- | --- | --- | --- | --- |
| CC(=O)N[C@H](C(=O)N[C@@H](Cc1ccc(O)cc1)C(=O)N[C@H]1CSCc2cccc(c2)CSC[C@@H](C(N)=O)NC(=O)[C@H](C)NC(=O)[C@H](Cc2c[nH]c3ccccc23)NC(=O)[C@H]([C@@H](C)O)NC(=O)[C@H](CC(C)C)NC(=O)[C@H](Cc2c[nH]c3ccccc23)NC(=O)[C@H](CC(=O)O)NC(=O)[C@@H](C)NC(=O)[C@H](CCC(=O)O)NC1=O)C(C)C [3BP-3280] (Ac-VYCE[dA]DWLTWAC-NH2; linker 3-12 via mXylylene) |  | B (t1/2 between 5.1 and 15.0 minutes) | < 10 |  | < 10 |
| CC(=O)N[C@H](C(=O)N[C@@H](Cc1ccc(O)cc1)C(=O)N[C@H]1CSCc2cccc(c2)CSC[C@@H](C(N)=O)NC(=O)[C@H](CCC(N)=O)NC(=O)[C@H](Cc2c[nH]c3ccccc23)NC(=O)[C@H]([C@@H](C)O)NC(=O)[C@H](CC(C)C)NC(=O)[C@H](Cc2csc3ccccc23)NC(=O)[C@H](CC(=O)O)NC(=O)CN(C)C(=O)[C@H](CCC(=O)O)NC1=O)C(C)C [3BP-3311] (Ac-VYCE[Sar]D[Bta]LTWQC-NH2; linker 3-12 via mXylylene) |  | C (t1/2 between 2.1 and 5.0 minutes) | < 10 |  | < 10 |
| CC(C)C[C@@H]1NC(=O)[C@H](Cc2c[nH]c3ccccc23)NC(=O)[C@H](CC(=O)O)NC(=O)[C@H]2CCCN2C(=O)[C@H](CCC(=O)O)NC(=O)[C@@H](NC(=O)[C@H](Cc2ccc(O)cc2)NC(=O)[C@@H](NC(=O)CN2CCC(NC(=O)CN3CCN(CC(=O)O)CCN(CC(=O)O)CCN(CC(=O)O)CC3)CC2)C(C)C)CSCc2cccc(c2)CSC[C@@H](C(N)=O)NC(=O)[C@H](CCC(=O)NC[C@H](O)[C@@H](O)[C@H](O)[C@H](O)CO)NC(=O)[C@H](Cc2c[nH]c3ccccc23)NC(=O)[C@H]([C@@H](C)O)NC1=O [3BP-4122] ({DOTA}-[X2]VYCE[dP]DWLTWE(NH(1-deoxy-D-glucityl))C-NH2; linker 4-13 via mXylylene) | < 10 | A (t1/2>15.0 minutes) | < 10 |  |  |
| CC(C)C[C@@H]1NC(=O)[C@H](Cc2c[nH]c3ccccc23)NC(=O)[C@H](CCC(=O)NCc2ccc3cn[nH]c3c2)NC(=O)[C@H]2CCCN2C(=O)[C@H](CCC(=O)O)NC(=O)[C@@H](NC(=O)[C@H](Cc2ccc(O)cc2)NC(=O)[C@@H](NC(=O)CN2CCC(NC(=O)CN3CCN(CC(=O)O)CCN(CC(=O)O)CCN(CC(=O)O)CC3)CC2)C(C)C)CSCc2cccc(c2)CSC[C@@H](C(N)=O)NC(=O)[C@H](CO)NC(=O)[C@H](Cc2c[nH]c3ccccc23)NC(=O)[C@H]([C@@H](C)O)NC1=O [3BP-4387] ({DOTA}-[X2]VYCE[dP]E(X29)WLTWSC-NH2; linker 4-13 via mXylylene) |  | A (t1/2>15.0 minutes) | < 10 | 10 to 79.4 |  |
| CC(=O)N[C@@H](CCC(=O)Nc1cccc(C[C@@H]2NC(=O)[C@H](CC(=O)O)NC(=O)[C@H]3CCCN3C(=O)[C@H](CCC(=O)O)NC(=O)[C@@H](NC(=O)[C@H](Cc3ccc(O)cc3)NC(=O)[C@@H](NC(=O)CN3CCC(NC(=O)CN4CCN(CC(=O)O)CCN(CC(=O)O)CCN(CC(=O)O)CC4)CC3)C(C)C)CSCc3cccc(c3)CSC[C@@H](C(N)=O)NC(=O)[C@H](CO)NC(=O)[C@H](Cc3c[nH]c4ccccc34)NC(=O)[C@H]([C@@H](C)O)NC(=O)[C@H](CC(C)C)NC2=O)c1)C(=O)O [3BP-4361] ({DOTA}-[X2]VYCE[dP]D[X35]LTWSC-NH2; linker 4-13 via mXylylene) |  | A (t1/2>15.0 minutes) | < 10 | 10 to 79.4 |  |
| CC(=O)N[C@@H](CC(=O)Nc1cccc(C[C@@H]2NC(=O)[C@H](CC(=O)O)NC(=O)[C@H]3CCCN3C(=O)[C@H](CCC(=O)O)NC(=O)[C@@H](NC(=O)[C@H](Cc3ccc(O)cc3)NC(=O)[C@@H](NC(=O)CN3CCC(NC(=O)CN4CCN(CC(=O)O)CCN(CC(=O)O)CCN(CC(=O)O)CC4)CC3)C(C)C)CSCc3cccc(c3)CSC[C@@H](C(N)=O)NC(=O)[C@H](CO)NC(=O)[C@H](Cc3c[nH]c4ccccc34)NC(=O)[C@H]([C@@H](C)O)NC(=O)[C@H](CC(C)C)NC2=O)c1)C(=O)O [3BP-4363] ({DOTA}-[X2]VYCE[dP]D[X33]LTWSC-NH2; linker 4-13 via mXylylene) |  | B (t1/2 between 5.1 and 15.0 minutes) | < 10 | 10 to 79.4 |  |
| CC(C)CC(=O)Nc1cccc(C[C@@H]2NC(=O)[C@H](CC(=O)O)NC(=O)[C@H]3CCCN3C(=O)[C@H](CCC(=O)O)NC(=O)[C@@H](NC(=O)[C@H](Cc3ccc(O)cc3)NC(=O)[C@@H](NC(=O)CN3CCC(NC(=O)CN4CCN(CC(=O)O)CCN(CC(=O)O)CCN(CC(=O)O)CC4)CC3)C(C)C)CSCc3cccc(c3)CSC[C@@H](C(N)=O)NC(=O)[C@H](CO)NC(=O)[C@H](Cc3c[nH]c4ccccc34)NC(=O)[C@H]([C@@H](C)O)NC(=O)[C@H](CC(C)C)NC2=O)c1 [3BP-4236] ({DOTA}-[X2]VYCE[dP]D[X22]LTWSC-NH2; linker 4-13 via mXylylene) | < 10 | B (t1/2 between 5.1 and 15.0 minutes) | < 10 |  |  |

The remaining lines, values ahead:

| IC50 [1, 3] [nM] | t1/2 category (activity) [2] | Kd [2] [nM] | IC50 [1, 4] [nM] | IC50 [1, 5] [nM] | SMILES |
| --- | --- | --- | --- | --- | --- |
| 10 to 79.4 | C (t1/2 between 2.1 and 5.0 minutes) | 10 to 79.4 |  |  | CC(C)C[C@@H]1NC(=O)[C@H](Cc2cccc(NC(=O)c3cc(S(N)(=O)=O)c[nH]3)c2)NC(=O)[C@H](CC(=O)O)NC(=O)[C@H]2CCCN2C(=O)[C@H](CCC(=O)O)NC(=O)[C@@H](NC(=O)[C@H](CCC(N)=O)NC(=O)CN2CCN(C(=O)CN3CCN(CC(=O)O)CCN(CC(=O)O)CCN(CC(=O)O)CC3)CC2)CSCc2cccc(c2)CSC[C@@H](C(N)=O)NC(=O)[C@H](CO)NC(=O)[C@H](Cc2c[nH]c3ccccc23)NC(=O)[C@H]([C@@H](C)O)NC1=O [3BP-4789] |
|  | A (t1/2>15.0 minutes) | < 10 | < 10 |  | CC(C)C[C@@H]1NC(=O)[C@H](Cc2cccc(NC(=O)c3cccc(S(N)(=O)=O)c3)c2)NC(=O)[C@H](CC(=O)O)NC(=O)[C@H]2CCCN2C(=O)[C@H](CCC(=O)O)NC(=O)[C@@H](NC(=O)[C@H](Cc2ccc(O)cc2)NC(=O)[C@@H](NC(=O)CN2CCC(NC(=O)CN3CCN(CC(=O)O)CCN(CC(=O)O)CCN(CC(=O)O)CC3)CC2)C(C)C)CSCc2cccc(c2)CSC[C@@H](C(N)=O)NC(=O)[C@H](CO)NC(=O)[C@H](Cc2c[nH]c3ccccc23)NC(=O)[C@H]([C@@H](C)O)NC1=O [3BP-4409] ({DOTA}-[X2]VYCE[dP]D[X23]LTWSC-NH2; linker 4-13 via mXylylene) |
|  | A (t1/2>15.0 minutes) | < 10 | < 10 |  | CC(C)C[C@@H]1NC(=O)[C@H](Cc2ccc(NC(=O)c3ccc(S(N)(=O)=O)s3)cc2)NC(=O)[C@H](CC(=O)O)NC(=O)[C@H]2CCCN2C(=O)[C@H](CCC(=O)O)NC(=O)[C@@H](NC(=O)[C@H](Cc2ccc(O)cc2)NC(=O)[C@@H](NC(=O)CN2CCC(NC(=O)CN3CCN(CC(=O)O)CCN(CC(=O)O)CCN(CC(=O)O)CC3)CC2)C(C)C)CSCc2cccc(c2)CSC[C@@H](C(N)=O)NC(=O)[C@H](CO)NC(=O)[C@H](Cc2c[nH]c3ccccc23)NC(=O)[C@H]([C@@H](C)O)NC1=O [3BP-4402] ({DOTA}-[X2]VYCE[dP]D[Phe(4-NH2)](X27)LTWSC-NH2; linker 4-13 via mXylylene) |
|  | B (t1/2 between 5.1 and 15.0 minutes) | < 10 | < 10 |  | CC(C)C[C@@H]1NC(=O)[C@H](Cc2ccc(NC(=O)c3ccc(S(N)(=O)=O)s3)cc2)NC(=O)[C@H](CC(=O)O)NC(=O)[C@H]2CCCN2C(=O)[C@H](CCC(=O)O)NC(=O)[C@@H](NC(=O)[C@H](Cc2ccc(O)cc2)NC(=O)CN2CCN(C(=O)CN3CCN(CC(=O)O)CCN(CC(=O)O)CCN(CC(=O)O)CC3)CC2)CSCc2cccc(c2)CSC[C@@H](C(N)=O)NC(=O)[C@H](CO)NC(=O)[C@H](Cc2c[nH]c3ccccc23)NC(=O)[C@H]([C@@H](C)O)NC1=O [3BP-4457] ({DOTA}-[X1]YCE[dP]D[Phe(4-NH2)](X27)LTWSC-NH2; linker 3-12 via mXylylene) |
| 10 to 79.4 | C (t1/2 between 2.1 and 5.0 minutes) | 10 to 79.4 |  |  | CC(C)C[C@@H]1NC(=O)[C@H](Cc2ccc(NC(=O)c3cc(S(N)(=O)=O)co3)cc2)NC(=O)[C@H](CC(=O)O)NC(=O)[C@H]2CCCN2C(=O)[C@H](CCC(=O)O)NC(=O)[C@@H](NC(=O)[C@H](CCC(N)=O)NC(=O)CN2CCN(C(=O)CN3CCN(CC(=O)O)CCN(CC(=O)O)CCN(CC(=O)O)CC3)CC2)CSCc2cccc(c2)CSC[C@@H](C(N)=O)NC(=O)[C@H](CO)NC(=O)[C@H](Cc2c[nH]c3ccccc23)NC(=O)[C@H]([C@@H](C)O)NC1=O [3BP-4813] ({DOTA}-[X1]QCE[dP]D[Phe(4-NH2)](X31)LTWSC-NH2; linker 3-12 via mXylylene) |
|  | C (t1/2 between 2.1 and 5.0 minutes) | < 10 | 10 to 79.4 |  | CC(C)C[C@@H]1NC(=O)[C@H](Cc2ccc(NC(=O)c3ccc(S(N)(=O)=O)cn3)cc2)NC(=O)[C@H](CC(=O)O)NC(=O)[C@H]2CCCN2C(=O)[C@H](CCC(=O)O)NC(=O)[C@@H](NC(=O)[C@H](CCC(N)=O)NC(=O)CN2CCN(C(=O)CN3CCN(CC(=O)O)CCN(CC(=O)O)CCN(CC(=O)O)CC3)CC2)CSCc2cccc(c2)CSC[C@@H](C(N)=O)NC(=O)[C@H](CO)NC(=O)[C@H](Cc2c[nH]c3ccccc23)NC(=O)[C@H]([C@@H](C)O)NC1=O [3BP-4480] ({DOTA}-[X1]QCE[dP]D[Phe(4-NH2)](X18)LTWSC-NH2; linker 3-12 via mXylylene) |

Source: patent US20250339569A1, “CARBONIC ANHYDRASE IX LIGANDS” (priority 2021, published 2025)
